Patent publication US10065950B2, “Substituted thiazoles as HIV integrase inhibitors” (Japan Tobacco Inc., priority 2010, dated 2018)

target: HIV-1 pNL4-3 integrase (Human immunodeficiency virus type 1 group M subtype B (isolate NY5) (HIV-1), UniProt P12497); assay: Determination of enzyme (HIV integrase) inhibitory activity; assay type: biochemical; settings: calculated from inhibition rate (fluorescence)
How it was run: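 Full-length pNL4-3 integrase from E. coli (0.75 μM stock) reacted 60 min at 37° C with compound and biotinylated donor DNA bound to streptavidin plates, in MOPS buffer with 5 mM MgCl2 and 10% DMSO. Digoxigenin-labelled target DNA (25 nM stock) then added for 20 min; strand transfer read by peroxidase anti-digoxigenin fluorescence (Ex 325/Em 420 nm).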

CC(C)N1C(=O)c2c(O)c(=O)c(-c3nnc(Cc4ccc(F)cc4)s3)cn2C[C@@]1(C)C(=O)NC(C)(C)C [Example 309] was tested. Which IC50 did it give?
The IC50 was 8.8 nM.

Which IC50 does the source give for CC(C)N1C(=O)c2c(O)c(=O)c(-c3nnc(Cc4ccc(F)cc4)s3)cn2C[C@@]1(C)C(=O)N1CCC1 [Example 310] here?
Its IC50 is 9.9 nM.

How did the IC50 turn out when CC(C)N1C(=O)c2c(O)c(=O)c(-c3nnc(Cc4ccc(F)cc4)s3)cn2C[C@@]1(C)C(=O)N1CCOCC1 [Example 311] was run?
Its IC50 is 9.7 nM.

With CC(C)N1C(=O)c2c(O)c(=O)c(-c3nnc(Cc4ccc(F)cc4)s3)cn2C[C@@]1(C)C(=O)O [Example 312] as the molecule, how does the IC50 read?
The IC50 was 12 nM.

Which IC50 does the source give for CN(C)C(=O)[C@@]1(C)CN(C)C(=O)c2c(O)c(=O)c(-c3nnc(Cc4ccc(F)cc4)s3)cn21 [Example 313] here?
Its IC50 is 9.7 nM.

Which IC50 does the source give for CN(C)C(=O)[C@@]1(C)CN(C)C(=O)c2c(O)c(=O)c(-c3ncc(Cc4ccc(F)cc4)s3)cn21 [Example 314] here?
Its IC50 is 7.9 nM.

For CC(C)N1C(=O)c2c(O)c(=O)c(-c3nnc(Cc4ccc(F)cc4)s3)cn2C[C@@]1(C)C(=O)N(C)C [Example 315], which IC50 is on record?
The IC50 was 8.8 nM.

COC[C@H]1CN([C@@H](C)C2CC2)C(=O)c2c(O)c(=O)c(-c3nnc(Cc4ccc(F)cc4)s3)cn21 [Example 316] was tested. Which IC50 did it give?
The IC50 was 12 nM.

How did the IC50 turn out when COC[C@@H]1Cn2cc(-c3nnc(CCc4ccc(F)cc4F)s3)c(=O)c(O)c2C(=O)N1C(C)C [Example 317] was run?
The IC50 was 9.8 nM.

Which IC50 does the source give for CCN1C(=O)c2c(O)c(=O)c(-c3nnc(Cc4ccc(F)cc4)s3)cn2C[C@]1(C)COC [Example 318] here?
The IC50 was 6.5 nM.

For CCN1C(=O)c2c(O)c(=O)c(-c3nnc(Cc4ccc(F)cc4F)s3)cn2CC1(COC)COC [Example 319], which IC50 is on record?
The IC50 was 5.8 nM.

How did the IC50 turn out when COCC1(COC)Cn2cc(-c3nnc(Cc4ccc(F)cc4)s3)c(=O)c(O)c2C(=O)N1C(C)C [Example 320] was run?
Its IC50 is 9.4 nM.

For CC(C)N1C(=O)c2c(O)c(=O)c(-c3nnc(Cc4ccc(F)cc4F)s3)cn2C[C@@]1(C)C(=O)N(C)C [Example 321], which IC50 is on record?
Its IC50 is 7 nM.

Which IC50 does the source give for CCN1C(=O)c2c(O)c(=O)c(-c3nnc(Cc4ccc(F)cc4)s3)cn2C[C@]1(C)COCCOC [Example 323] here?
The IC50 was 14 nM.

With CC[C@@H]1Cn2cc(-c3ncc(Cc4ccc(F)cc4)s3)c(=O)c(O)c2C(=O)N1CC [Example 327] as the molecule, how does the IC50 read?
Its IC50 is 5.9 nM.

How did the IC50 turn out when CCN1C(=O)c2c(O)c(=O)c(-c3nnc(Cc4ccc(F)cc4)s3)cn2C[C@H]1C [Example 328] was run?
The IC50 was 7.1 nM.

CCN1C(=O)c2c(O)c(=O)c(-c3ncc(Cc4ccc(F)cc4)s3)cn2C[C@H]1C(C)C [Example 329] was tested. Which IC50 did it give?
Its IC50 is 6.1 nM.

How did the IC50 turn out when CCN1C(=O)c2c(O)c(=O)c(-c3ncc(Cc4ccc(F)cc4)s3)cn2C[C@H]1C [Example 330] was run?
The IC50 was 6.4 nM.

For CCN(C)C(=O)[C@]1(C)Cn2cc(-c3nnc(Cc4ccc(F)cc4)s3)c(=O)c(O)c2C(=O)N1C(C)C [Example 331], which IC50 is on record?
Its IC50 is 9.3 nM.

For CCN1C(=O)c2c(O)c(=O)c(-c3nnc(Cc4ccc(F)cc4)s3)cn2C[C@H]1[C@H](C)OC [Example 332], which IC50 is on record?
Its IC50 is 12 nM.

How did the IC50 turn out when CCN1C(=O)c2c(O)c(=O)c(-c3ncc(Cc4ccc(F)cc4)s3)cn2C[C@H]1[C@H](C)OC [Example 333] was run?
Its IC50 is 7.5 nM.

For CO[C@@H](C)[C@@H]1Cn2cc(-c3nnc(Cc4ccc(F)cc4)s3)c(=O)c(O)c2C(=O)N1C(C)C [Example 334], which IC50 is on record?
The IC50 was 9.1 nM.

With CN(C)C(=O)[C@@]1(C)CN(C)C(=O)c2c(O)c(=O)c(-c3nnc(Cc4ccc(F)cc4F)s3)cn21 [Example 335] as the molecule, how does the IC50 read?
Its IC50 is 9.8 nM.

CN(C)C(=O)[C@@]1(C)CN(C)C(=O)c2c(O)c(=O)c(-c3ncc(Cc4ccc(F)cc4F)s3)cn21 [Example 336] was tested. Which IC50 did it give?
Its IC50 is 7.2 nM.

How did the IC50 turn out when CCC(CC)N1C[C@H](COC)n2cc(-c3nnc(Cc4ccc(F)cc4)s3)c(=O)c(O)c2C1=O [Example 337] was run?
The IC50 was 17 nM.

Which IC50 does the source give for CO[C@H](C)[C@@H]1CN(C(C)C)C(=O)c2c(O)c(=O)c(-c3nnc(Cc4ccc(F)cc4)s3)cn21 [Example 338] here?
The IC50 was 7.1 nM.

How did the IC50 turn out when COC[C@H]1[C@@H](C)n2cc(-c3nnc(Cc4ccc(F)cc4)s3)c(=O)c(O)c2C(=O)N1C(C)C [Example 353] was run?
The IC50 was 13 nM.

For CC(C)N1C(=O)c2c(O)c(=O)c(-c3nnc(Cc4ccc(F)cc4)s3)cn2C[C@H]1CO [Example 354], which IC50 is on record?
The IC50 was 8 nM.

Which IC50 does the source give for CCN1C(=O)c2c(O)c(=O)c(-c3nnc(Cc4ccc(F)cc4)s3)cn2CC1(C)C [Example 355] here?
Its IC50 is 6.6 nM.

COC[C@@H]1[C@H](C)N(C(C)C)C(=O)c2c(O)c(=O)c(-c3nnc(Cc4ccc(F)cc4)s3)cn21 [Example 356] was tested. Which IC50 did it give?
Its IC50 is 8.9 nM.

For CCCN1C[C@H](COCC)n2cc(-c3nnc(Cc4ccc(F)cc4)s3)c(=O)c(O)c2C1=O [Example 357], which IC50 is on record?
The IC50 was 7.3 nM.

Which IC50 does the source give for CC(C)N1C[C@H](Cn2cncn2)n2cc(-c3nnc(Cc4ccc(F)cc4)s3)c(=O)c(O)c2C1=O [Example 358] here?
Its IC50 is 12 nM.

With CC(C)N1C[C@H](Cn2cnnn2)n2cc(-c3nnc(Cc4ccc(F)cc4)s3)c(=O)c(O)c2C1=O [Example 359] as the molecule, how does the IC50 read?
Its IC50 is 4.8 nM.

CC(C)N1C[C@H](CS(=O)(=O)C(C)(C)C)n2cc(-c3nnc(Cc4ccc(F)cc4)s3)c(=O)c(O)c2C1=O [Example 360] was tested. Which IC50 did it give?
Its IC50 is 11 nM.

For CCOC[C@H]1CN(C(C)(C)C)C(=O)c2c(O)c(=O)c(-c3nnc(Cc4ccc(F)cc4)s3)cn21 [Example 361], which IC50 is on record?
Its IC50 is 15 nM.

CCCCN1C[C@H](COCCOC)n2cc(-c3nnc(Cc4ccc(F)cc4)s3)c(=O)c(O)c2C1=O [Example 362] was tested. Which IC50 did it give?
Its IC50 is 10 nM.

With CCCOC[C@H]1CN(C(C)C)C(=O)c2c(O)c(=O)c(-c3nnc(Cc4ccc(F)cc4)s3)cn21 [Example 363] as the molecule, how does the IC50 read?
The IC50 was 8.7 nM.

For CCCCOC[C@H]1CN(C(C)C)C(=O)c2c(O)c(=O)c(-c3nnc(Cc4ccc(F)cc4)s3)cn21 [Example 364], which IC50 is on record?
The IC50 was 10 nM.

Which IC50 does the source give for CC(C)OC[C@H]1CN(C(C)C)C(=O)c2c(O)c(=O)c(-c3nnc(Cc4ccc(F)cc4)s3)cn21 [Example 365] here?
The IC50 was 12 nM.

How did the IC50 turn out when CCC(OC)[C@H]1CN(C(C)C)C(=O)c2c(O)c(=O)c(-c3nnc(Cc4ccc(F)cc4)s3)cn21 (stereo partly drawn) [Example 382] was run?
Its IC50 is 8.7 nM.

How did the IC50 turn out when CCC(OC)[C@H]1CN(C(C)C)C(=O)c2c(O)c(=O)c(-c3nnc(Cc4ccc(F)cc4)s3)cn21 (stereo partly drawn) [Example 383] was run?
Its IC50 is 7.9 nM.

Which IC50 does the source give for CO[C@@H](C)COC[C@H]1CN(C2CC2)C(=O)c2c(O)c(=O)c(-c3nnc(Cc4ccc(F)cc4)s3)cn21 [Example 384] here?
Its IC50 is 12 nM.

Which IC50 does the source give for CO[C@@H](C)COC[C@H]1CN(C(C)C)C(=O)c2c(O)c(=O)c(-c3nnc(Cc4ccc(F)cc4)s3)cn21 [Example 385] here?
The IC50 was 8.2 nM.

How did the IC50 turn out when CO[C@H](C)[C@H]1CN(C(C)C)C(=O)c2c(O)c(=O)c(-c3ncc(Cc4ccc(F)cc4)s3)cn21 [Example 386] was run?
The IC50 was 15 nM.

Which IC50 does the source give for CO[C@H](C)[C@@H]1CN(C(C)C)C(=O)c2c(O)c(=O)c(-c3ncc(Cc4ccc(F)cc4)s3)cn21 [Example 387] here?
Its IC50 is 11 nM.

With CO[C@@H](C)[C@H]1CN(C(C)C)C(=O)c2c(O)c(=O)c(-c3ncc(Cc4ccc(F)cc4)s3)cn21 [Example 388] as the molecule, how does the IC50 read?
The IC50 was 8.6 nM.

How did the IC50 turn out when CCO[C@H](CC)[C@H]1CN(C(C)C)C(=O)c2c(O)c(=O)c(-c3nnc(Cc4ccc(F)cc4)s3)cn21 [Example 389] was run?
The IC50 was 14 nM.

Which IC50 does the source give for COCCOC[C@@]1(C(=O)N(C)C)CN(C(C)C)C(=O)c2c(O)c(=O)c(-c3nnc(Cc4ccc(F)cc4)s3)cn21 [Example 391] here?
The IC50 was 24 nM.

Which IC50 does the source give for CC[C@]1(C(=O)N2CCC2)CN(C(C)C)C(=O)c2c(O)c(=O)c(-c3nnc(Cc4ccc(F)cc4)s3)cn21 [Example 392] here?
The IC50 was 11 nM.

With CCNC(=O)[C@]1(COC)CN(C(C)C)C(=O)c2c(O)c(=O)c(-c3ncc(Cc4ccc(F)cc4)s3)cn21 [Example 393] as the molecule, how does the IC50 read?
The IC50 was 15 nM.

Which IC50 does the source give for CCNC(=O)[C@]1(COCCOC)CN(C(C)C)C(=O)c2c(O)c(=O)c(-c3ncc(Cc4ccc(F)cc4)s3)cn21 [Example 394] here?
Its IC50 is 14 nM.

CCN1C(=O)c2c(O)c(=O)c(-c3nnc(Cc4ccc(F)cc4)s3)cn2C[C@@H]1[C@@H](C)OC [Example 395] was tested. Which IC50 did it give?
Its IC50 is 10 nM.

How did the IC50 turn out when CCN(C)C(=O)[C@]1(COC)CN(C(C)C)C(=O)c2c(O)c(=O)c(-c3nnc(Cc4ccc(F)cc4)s3)cn21 [Example 396] was run?
Its IC50 is 15 nM.

How did the IC50 turn out when CCN(C)C(=O)[C@]1(COCCOC)CN(C(C)C)C(=O)c2c(O)c(=O)c(-c3nnc(Cc4ccc(F)cc4)s3)cn21 [Example 397] was run?
The IC50 was 19 nM.
